Data from patent US10131652B2, “Pyrimidinyloxy benzene derivatives as herbicides” (E. I. DU PONT DE NEMOURS AND COMPANY, priority 2014, dated 2018).
Where two headings read alike, the source gives them in different places.

Columns and labels:
Format in all cases: in vivo
[1] = test system: large (Lg) crabgrass (Digitaria sanguinalis); assay: Test B pre-/postemergence plant response; details: for pest or weed control at 500 g/ha: 500 g ai/ha
How it was run: (§1)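 Ratings reflect visual injury versus untreated controls, from 0 for no effect to 100 for complete control, assessed roughly 10 days after treatment. Formulation: non-phytotoxic solvent mix with surfactant; pre- and postemergence sprays on plants grown in loam soil and sand.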

[2] = test system: morningglory (Ipomoea spp.); assay: Test B pre-/postemergence plant response; details: for pest or weed control at 500 g/ha: 500 g ai/ha
How it was run: as §1

[3] = test system: velvetleaf (Abutilon theophrasti); assay: Test B pre-/postemergence plant response; details: for pest or weed control at 500 g/ha: 500 g ai/ha
How it was run: as §1

[4] = test system: Brazilian crabgrass (Digitaria horizontalis); assay: Test F pre-/postemergence plant response; details: Digitaria horizontalis, scale 0 to 100, read-out: Plant response rating, Crabgrass, Brazil
How it was run: (§2)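 Two application timings were run side by side: soil surface treatment of freshly planted seed in silt loam, and foliar treatment of seedlings 2 to 18 cm high. Plants stayed in the greenhouse 14 to 21 days before visual 0–100 injury scoring against controls.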

[5] = test system: corn (Zea mays); assay: Test F pre-/postemergence plant response; details: Zea mays, scale 0 to 100
How it was run: as §2

[6] = test system: fall panicum (Panicum dichotomiflorum); assay: Test F pre-/postemergence plant response; details: Panicum dichotomiflorum, scale 0 to 100, read-out: Plant response rating, Panicum, Fall
How it was run: as §2

[7] = test system: green foxtail (Setaria viridis); assay: Test F pre-/postemergence plant response; details: Setaria viridis, pre-emergence, scale 0 to 100, read-out: Plant response rating, Foxtail, Green
How it was run: as §2

[8] = test system: lambsquarters (Chenopodium album); assay: Test F pre-/postemergence plant response; details: Chenopodium album, pre-emergence, scale 0 to 100, read-out: Plant response rating, Lambsquarters
How it was run: as §2

[9] = test system: morningglory (Ipomoea coccinea); assay: Test F pre-/postemergence plant response; details: Ipomoea, pre-emergence, scale 0 to 100, read-out: Plant response rating, Morningglory
How it was run: as §2

[10] = test system: ragweed (common ragweed, Ambrosia elatior); assay: Test F pre-/postemergence plant response; details: Ambrosia artemisiifolia, pre-emergence, scale 0 to 100, read-out: Plant response rating, Ragweed
How it was run: as §2

[11] = Preemergence, 125 g ai/ha, 0 to 100 scale (0 no effect, 100 complete control)
[12] = post-emergence, 8 g ai/ha Postemergence
[13] = post-emergence, 16 g ai/ha Postemergence
[14] = post-emergence, 31 g ai/ha Postemergence
[15] = post-emergence, 62 g ai/ha Postemergence
[16] = post-emergence, 125 g ai/ha Postemergence
[17] = pre-emergence, 8 g ai/ha Preemergence
[18] = pre-emergence, 16 g ai/ha Preemergence
[19] = pre-emergence, 31 g ai/ha Preemergence
[20] = pre-emergence, 62 g ai/ha Preemergence
[21] = pre-emergence, 125 g ai/ha Preemergence

## FC(F)(F)c1cc(-c2ccccc2Oc2ncc(Cl)cn2)no1 [Compound 200, 5-chloro-2-[2-[5-(trifluoromethyl)-3-isoxazolyl]phenoxy]pyrimidine]
[1]; Digitaria sanguinalis, post-emergence, 240 h, 125 g ai/ha, postemergence, 0 to 100 scale, 0 no effect, 100 complete control, read-out: Plant response rating, Crabgrass, Large
  pest or weed control at 125 g/ha: 100%
[1]; Digitaria sanguinalis, post-emergence, 240 h, postemergence, 0 to 100 scale, 0 no effect, 100 complete control, read-out: Plant response rating, Crabgrass, Large
  pest or weed control at 500 g/ha: 100%
[1]; Digitaria sanguinalis, pre-emergence, 240 h, Preemergence, 0 to 100 scale where 0 is no effect and 100 is complete control, read-out: Plant response rating, Crabgrass, Large
  pest or weed control at 500 g/ha: 100%
[1]; [11]
  Crabgrass, Large plant response rating: 100
[2]; Ipomoea, post-emergence, 240 h, 125 g ai/ha, postemergence, 0 to 100 scale, 0 no effect, 100 complete control, read-out: Plant response rating, Morningglory
  pest or weed control at 125 g/ha: 90%
[2]; Ipomoea, post-emergence, 240 h, postemergence, 0 to 100 scale, 0 no effect, 100 complete control, read-out: Plant response rating, Morningglory
  pest or weed control at 500 g/ha: 100%
[2]; Ipomoea, pre-emergence, 240 h, Preemergence, 0 to 100 scale where 0 is no effect and 100 is complete control, read-out: Plant response rating, Morningglory
  pest or weed control at 500 g/ha: 100%
[2]; [11]
  Morningglory plant response rating: 20
[3]; Abutilon theophrasti, post-emergence, 240 h, 125 g ai/ha, postemergence, 0 to 100 scale, 0 no effect, 100 complete control, read-out: Plant response rating, Velvetleaf
  pest or weed control at 125 g/ha: 100%
[3]; Abutilon theophrasti, post-emergence, 240 h, postemergence, 0 to 100 scale, 0 no effect, 100 complete control, read-out: Plant response rating, Velvetleaf
  pest or weed control at 500 g/ha: 100%
[3]; Abutilon theophrasti, pre-emergence, 240 h, Preemergence, 0 to 100 scale where 0 is no effect and 100 is complete control, read-out: Plant response rating, Velvetleaf
  pest or weed control at 500 g/ha: 90%
[3]; [11]
  Velvetleaf plant response rating: 80
[4]; [12]
  pest or weed control at 8 g/ha: 10%
[4]; [13]
  pest or weed control at 16 g/ha: 10%
[4]; [14]
  pest or weed control at 31 g/ha: 15%
[4]; [15]
  pest or weed control at 62 g/ha: 20%
[4]; [16]
  pest or weed control at 125 g/ha: 20%
[4]; [17]
  pest or weed control at 8 g/ha: 0%
[4]; [18]
  pest or weed control at 16 g/ha: 90%
[4]; [19]
  pest or weed control at 31 g/ha: 98%
[4]; [20]
  pest or weed control at 62 g/ha: 100%
[4]; [21]
  pest or weed control at 125 g/ha: 100%
[5]; [12]
  Corn plant response rating (crop injury, 0 = no effect, 100 = complete kill) at 8 g/ha: 0%
[5]; [13]
  Corn plant response rating (crop injury, 0 = no effect, 100 = complete kill) at 16 g/ha: 0%
[5]; [14]
  Corn plant response rating (crop injury, 0 = no effect, 100 = complete kill) at 31 g/ha: 10%
[5]; [15]
  Corn plant response rating (crop injury, 0 = no effect, 100 = complete kill) at 62 g/ha: 20%
[5]; [16]
  Corn plant response rating (crop injury, 0 = no effect, 100 = complete kill) at 125 g/ha: 25%
[5]; [17]
  Corn plant response rating (crop injury, 0 = no effect, 100 = complete kill) at 8 g/ha: 0%
[5]; [18]
  Corn plant response rating (crop injury, 0 = no effect, 100 = complete kill) at 16 g/ha: 0%
[5]; [19]
  Corn plant response rating (crop injury, 0 = no effect, 100 = complete kill) at 31 g/ha: 0%
[5]; [20]
  Corn plant response rating (crop injury, 0 = no effect, 100 = complete kill) at 62 g/ha: 0%
[5]; [21]
  Corn plant response rating (crop injury, 0 = no effect, 100 = complete kill) at 125 g/ha: 0%
[6]; [12]
  pest or weed control at 8 g/ha: 5%
[6]; [13]
  pest or weed control at 16 g/ha: 5%
[6]; [14]
  pest or weed control at 31 g/ha: 5%
[6]; [15]
  pest or weed control at 62 g/ha: 5%
[6]; [16]
  pest or weed control at 125 g/ha: 15%
[6]; [17]
  pest or weed control at 8 g/ha: 0%
[6]; [18]
  pest or weed control at 16 g/ha: 70%
[6]; [19]
  pest or weed control at 31 g/ha: 35%
[6]; [21]
  pest or weed control at 125 g/ha: 100%
[6]; pre-emergence, Preemergence
  pest or weed control at 62 g/ha: 98%
[7]; 8 g ai/ha Preemergence
  pest or weed control at 8 g/ha: 0%
[7]; 16 g ai/ha, Preemergence
  pest or weed control at 16 g/ha: 10%
[7]; 31 g ai/ha, Preemergence
  pest or weed control at 31 g/ha: 98%
[7]; 125 g ai/ha, Preemergence
  pest or weed control at 125 g/ha: 100%
[7]; Preemergence
  pest or weed control at 62 g/ha: 100%
[8]; 8 g ai/ha Preemergence
  pest or weed control at 8 g/ha: 0%
[8]; 16 g ai/ha, Preemergence
  pest or weed control at 16 g/ha: 0%
[8]; 31 g ai/ha, Preemergence
  pest or weed control at 31 g/ha: 98%
[8]; 125 g ai/ha, Preemergence
  pest or weed control at 125 g/ha: 100%
[8]; Preemergence
  pest or weed control at 62 g/ha: 98%
[9]; 8 g ai/ha Preemergence
  pest or weed control at 8 g/ha: 0%
[9]; 16 g ai/ha Preemergence
  pest or weed control at 16 g/ha: 0%
[9]; 31 g ai/ha Preemergence
  pest or weed control at 31 g/ha: 0%
[9]; 125 g ai/ha Preemergence
  pest or weed control at 125 g/ha: 15%
[9]; Preemergence
  pest or weed control at 62 g/ha: 0%
[10]; 8 g ai/ha Preemergence
  pest or weed control at 8 g/ha: 0%
[10]; 16 g ai/ha Preemergence
  pest or weed control at 16 g/ha: 0%
[10]; 31 g ai/ha Preemergence
  pest or weed control at 31 g/ha: 10%
[10]; 125 g ai/ha Preemergence
  pest or weed control at 125 g/ha: 40%
[10]; Preemergence
  pest or weed control at 62 g/ha: 35%
